Several values for one entry are separate records, joined by “and”; a condition that tells them apart may be missing. Equal values may be shown once. Inconclusive results are not listed.

Among the data in PubChem BioAssay AID270 (DTP/NCI, 2004) are T/C values, retold here.

For the assay, the system named is BDF1 mice, s.c. Lewis lung carcinoma, T/C %. Nature of the assay: NCI In Vivo Anticancer Drug Screen. Data for tumor model Lewis Lung Carcinoma (subcutaneous) in B6D2F1 (BDF1) mice. Summed up: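 Antitumor effect in vivo is scored from survival or tumor burden, reported as treated relative to vehicle controls.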
[1] abbreviates: endpoint: median survival time, dose: 3.12 mg/kg/injection, schedule: Q01DX009 (ip), vehicle: Klucel (hydroxypropylcellulose) (HPC), higher = longer survival.
Where [2] appears, read: endpoint: median survival time, dose: 6.25 mg/kg/injection, schedule: Q01DX009 (ip), vehicle: Klucel (hydroxypropylcellulose) (HPC), higher = longer survival.
Setting [3] is: endpoint: median survival time, dose: 12.5 mg/kg/injection, schedule: Q01DX009 (ip), vehicle: Klucel (hydroxypropylcellulose) (HPC), higher = longer survival.
Setting [4] is: endpoint: median survival time, dose: 25.0 mg/kg/injection, schedule: Q01DX009 (ip), vehicle: Klucel (hydroxypropylcellulose) (HPC), higher = longer survival.
Setting [5] is: endpoint: median survival time, dose: 25.0 mg/kg/injection, schedule: Q01DX009 (ip), vehicle: saline with Tween-80, higher = longer survival.
Where [6] appears, read: endpoint: median survival time, dose: 50.0 mg/kg/injection, schedule: Q01DX009 (ip), vehicle: saline with Tween-80, higher = longer survival.
[7] abbreviates: endpoint: median survival time, dose: 100.0 mg/kg/injection, schedule: Q01DX009 (ip), vehicle: saline with Tween-80, higher = longer survival.

In the case of `C[C@]12CCC(=O)C=C1CC[C@@H]1[C@@H]2[C@@H](O)C[C@@]2(C)[C@H]1CC[C@]2(O)C(=O)CO`, the T/C was 98 % of control (endpoint: median survival time, dose: 40.0 mg/kg/injection, schedule: Q02DX009 (ip), vehicle: Klucel (hydroxypropylcellulose) (HPC), higher = longer survival); 96 % of control (endpoint: median survival time, dose: 80.0 mg/kg/injection, schedule: Q02DX009 (ip), vehicle: Klucel (hydroxypropylcellulose) (HPC), higher = longer survival); 97 % of control (endpoint: median survival time, dose: 160.0 mg/kg/injection, schedule: Q02DX009 (ip), vehicle: Klucel (hydroxypropylcellulose) (HPC), higher = longer survival); 88 % of control (endpoint: median survival time, dose: 640.0 mg/kg/injection, schedule: Q02DX009 (ip), vehicle: Klucel (hydroxypropylcellulose) (HPC), higher = longer survival).

`O=C1N(Br)C(=O)C(c2ccc(Cl)cc2)(c2ccc(Cl)cc2)N1Br`: the T/C is, setting by setting: under setting [1], 100 % of control; under setting [2], 97 % of control; under setting [3], 102 % of control; under setting [4], 96 % of control.

As for `CC1CCCCN1CCNc1ccc(CO)c2sc3ccccc3c(=O)c12` (stereo not drawn), the T/C is 108 % of control under setting [5], 100 % of control under setting [6] and 122 % of control under setting [7].

For the molecule `CC1=C(/C=C/C(C)=C/C=C/C(C)=C/CO)C(C)(C)CCC1`, the T/C runs as follows: (endpoint: median survival time, dose: 4.0 mg/kg/injection, schedule: Q01DX005 (ip), vehicle: saline with Tween-80, higher = longer survival) 108 % of control; (endpoint: median survival time, dose: 12.5 mg/kg/injection, schedule: Q01DX005 (ip), vehicle: saline with Tween-80, higher = longer survival) 109 % of control; (endpoint: median survival time, dose: 16.0 mg/kg/injection, schedule: Q01DX005 (ip), vehicle: saline with Tween-80, higher = longer survival) 111 % of control; (endpoint: median survival time, dose: 32.0 mg/kg/injection, schedule: Q01DX005 (ip), vehicle: saline with Tween-80, higher = longer survival) 115 % of control; (endpoint: median survival time, dose: 64.0 mg/kg/injection, schedule: Q01DX005 (ip), vehicle: saline with Tween-80, higher = longer survival) 191 % of control; (endpoint: median survival time, dose: 128.0 mg/kg/injection, schedule: Q01DX005 (ip), vehicle: saline with Tween-80, higher = longer survival) 92 % of control.

Take `C/C(=C\c1ccc(C)cc1)[N+](=O)[O-]`: the T/C is, setting by setting: under setting [5], 96 % of control; under setting [6], 95 % of control; under setting [7], 94 % of control.

As to `NCC(O)c1ccc(O)c(O)c1` (stereo not drawn), the T/C (endpoint: mean tumor weight, dose: 2.5 mg/kg/injection, schedule: Q01DX011 (ip), vehicle: saline, higher = larger tumour) was 105 % of control; the T/C (endpoint: mean tumor weight, dose: 5.0 mg/kg/injection, schedule: Q01DX011 (ip), vehicle: saline, higher = larger tumour) was 161 % of control; the T/C (endpoint: mean tumor weight, dose: 10.0 mg/kg/injection, schedule: Q01DX011 (ip), vehicle: saline, higher = larger tumour) was 63 % of control.

Regarding `COc1ccc(OCC(O)CN2CCN(c3ccc(Cl)cc3)CC2)cc1` (stereo not drawn), the T/C is, setting by setting: under setting [3], 90 % of control; under setting [4], 87 % of control; (endpoint: median survival time, dose: 50.0 mg/kg/injection, schedule: Q01DX009 (ip), vehicle: Klucel (hydroxypropylcellulose) (HPC), higher = longer survival) 96 % of control; (endpoint: median survival time, dose: 100.0 mg/kg/injection, schedule: Q01DX009 (ip), vehicle: Klucel (hydroxypropylcellulose) (HPC), higher = longer survival) 90 % of control; (endpoint: median survival time, dose: 200.0 mg/kg/injection, schedule: Q01DX009 (ip), vehicle: Klucel (hydroxypropylcellulose) (HPC), higher = longer survival) 89 % of control.

On to `CN1CCCC1c1cccnc1` (stereo not drawn), for which the T/C is 62 % of control (endpoint: mean tumor weight, dose: 1.0 mg/kg/injection, schedule: Q01DX011 (ip), vehicle: carboxymethylcellulose (CMC), higher = larger tumour); 75 % of control (endpoint: mean tumor weight, dose: 2.0 mg/kg/injection, schedule: Q01DX011 (ip), vehicle: carboxymethylcellulose (CMC), higher = larger tumour); 72 % of control (endpoint: mean tumor weight, dose: 4.0 mg/kg/injection, schedule: Q01DX011 (ip), vehicle: carboxymethylcellulose (CMC), higher = larger tumour).

Regarding `CO[C@H]1Nc2c(ccc(C)c2O)C(=O)N2C=C(/C=C/C(N)=O)C[C@@H]12`, the T/C was 92 % of control (endpoint: median survival time, dose: 0.03 mg/kg/injection, schedule: Q04DX003 (ip), vehicle: saline with Tween-80, higher = longer survival); 103 % of control (endpoint: median survival time, dose: 0.04 mg/kg/injection, schedule: Q04DX003 (ip), vehicle: saline with Tween-80, higher = longer survival); 89 % of control and 98 % of control (endpoint: median survival time, dose: 0.06 mg/kg/injection, schedule: Q04DX003 (ip), vehicle: saline with Tween-80, higher = longer survival); 98 % of control (endpoint: median survival time, dose: 0.13 mg/kg/injection, schedule: Q04DX003 (ip), vehicle: saline with Tween-80, higher = longer survival); 99 % of control (endpoint: median survival time, dose: 0.25 mg/kg/injection, schedule: Q04DX003 (ip), vehicle: saline with Tween-80, higher = longer survival); 107 % of control (endpoint: median survival time, dose: 50.0 micrograms/kg/injection, schedule: Q04DX003 (ip), vehicle: saline + alcohol, higher = longer survival). The T/C is 106 % of control (endpoint: median survival time, dose: 100.0 micrograms/kg/injection, schedule: Q04DX003 (ip), vehicle: saline + alcohol, higher = longer survival) and 97 % of control (endpoint: median survival time, dose: 200.0 micrograms/kg/injection, schedule: Q04DX003 (ip), vehicle: saline + alcohol, higher = longer survival).

On to `CCO/C=C1\SC(=S)N(c2ccccc2OC)C1=O`, for which the T/C reads like this: (endpoint: median survival time, dose: 1.56 mg/kg/injection, schedule: Q01DX009 (ip), vehicle: Klucel (hydroxypropylcellulose) (HPC), higher = longer survival) 100 % of control; under setting [1], 98 % of control; under setting [2], 109 % of control; under setting [3], 101 % of control.

`CCCCOB(/C=C/Sc1ccccc1)OCCCC`: the T/C under setting [6] was 95 % of control.

On to `O=NN(CCCl)C(=O)NC1CCC(NC(=O)N(CCCl)N=O)CC1` (stereo not drawn), for which the T/C runs as follows: (endpoint: median survival time, dose: 30.0 mg/kg/injection, schedule: Q04DX004 (ip), vehicle: saline with Tween-80, higher = longer survival) 123 % of control; (endpoint: median survival time, dose: 45.0 mg/kg/injection, schedule: Q01DX001 (ip), vehicle: saline with Tween-80, higher = longer survival) 109 % of control; (endpoint: median survival time, dose: 45.0 mg/kg/injection, schedule: Q04DX004 (ip), vehicle: saline with Tween-80, higher = longer survival) 156 % of control; (endpoint: median survival time, dose: 75.0 mg/kg/injection, schedule: Q04DX004 (ip), vehicle: saline with Tween-80, higher = longer survival) 104 % of control and 122 % of control; (endpoint: median survival time, dose: 84.0 mg/kg/injection, schedule: Q01DX001 (ip), vehicle: saline with Tween-80, higher = longer survival) 174 % of control; (endpoint: median survival time, dose: 90.0 mg/kg/injection, schedule: Q07DX002 (ip), vehicle: saline with Tween-80, higher = longer survival) 117 % of control and 222 % of control. The T/C is 116 % of control (endpoint: median survival time, dose: 120.0 mg/kg/injection, schedule: Q07DX002 (ip), vehicle: saline with Tween-80, higher = longer survival); 105 % of control (endpoint: median survival time, dose: 150.0 mg/kg/injection, schedule: Q07DX002 (ip), vehicle: saline with Tween-80, higher = longer survival); 179 % of control (endpoint: median survival time, dose: 171.0 mg/kg/injection, schedule: Q01DX001 (ip), vehicle: saline with Tween-80, higher = longer survival); 112 % of control (endpoint: median survival time, dose: 255.0 mg/kg/injection, schedule: Q01DX001 (ip), vehicle: saline with Tween-80, higher = longer survival); 88 % of control (endpoint: median tumor weight (est.), dose: 30.0 mg/kg/injection, schedule: Q01DX001 (ip), vehicle: saline with Tween-80, higher = larger tumour); 121 % of control (endpoint: median tumor weight (est.), dose: 45.0 mg/kg/injection, schedule: Q01DX001 (ip), vehicle: saline with Tween-80, higher = larger tumour). In addition, the T/C (endpoint: median tumor weight (est.), dose: 67.0 mg/kg/injection, schedule: Q01DX001 (ip), vehicle: saline with Tween-80, higher = larger tumour) is 64 % of control; the T/C (endpoint: median tumor weight (est.), dose: 101.0 mg/kg/injection, schedule: Q01DX001 (ip), vehicle: saline with Tween-80, higher = larger tumour) is 83 % of control; the T/C (endpoint: median tumor weight (est.), dose: 152.0 mg/kg/injection, schedule: Q01DX001 (ip), vehicle: saline with Tween-80, higher = larger tumour) was 23 % of control.

Consider `C=C(C(=O)O)C(=O)O`, for which the T/C is, setting by setting: (endpoint: median survival time, dose: 50.0 mg/kg/injection, schedule: Q01DX009 (ip), vehicle: saline, higher = longer survival) 105 % of control; (endpoint: median survival time, dose: 100.0 mg/kg/injection, schedule: Q01DX009 (ip), vehicle: saline, higher = longer survival) 105 % of control; (endpoint: median survival time, dose: 200.0 mg/kg/injection, schedule: Q01DX009 (ip), vehicle: saline, higher = longer survival) 103 % of control.

As for `NC(=O)NC1NC(=O)NC1=O` (stereo not drawn), the T/C by setting is: (endpoint: mean tumor weight, dose: 15.6 mg/kg/injection, schedule: Q01DX011 (ip), vehicle: saline, higher = larger tumour) 67 % of control; (endpoint: mean tumor weight, dose: 31.3 mg/kg/injection, schedule: Q01DX011 (ip), vehicle: saline, higher = larger tumour) 97 % of control; (endpoint: mean tumor weight, dose: 62.5 mg/kg/injection, schedule: Q01DX011 (ip), vehicle: saline, higher = larger tumour) 69 % of control and 76 % of control; (endpoint: mean tumor weight, dose: 125.0 mg/kg/injection, schedule: Q01DX011 (ip), vehicle: saline, higher = larger tumour) 106 % of control; (endpoint: mean tumor weight, dose: 250.0 mg/kg/injection, schedule: Q01DX011 (ip), vehicle: saline, higher = larger tumour) 103 % of control; (endpoint: mean tumor weight, dose: 500.0 mg/kg/injection, schedule: Q01DX011 (ip), vehicle: saline, higher = larger tumour) 101 % of control.
